Measured values published in patent US12441704B2, “Compounds active towards nuclear receptors” (NUEVOLUTION A/S, priority 2019, dated 2025).
pEC50: −log10 of the molar value.

What follows are molecules tested against T1, RORγ ligand-binding domain fused to Gal4 (Homo sapiens, UniProt P51449) (assay: RORγ Reporter Assay (Gal4)). Conditions: HEK293 cells co-transfected with RORγ LBD-Gal4 and luciferase reporter; 24 h incubation; absolute EC50; read-out: EC50.
T1 construct: Gal4 (galactose-responsive transcription factor); expressed in transfected cells; host or cells: HEK293
T1 sequence (P51449 269-508 limits assumed): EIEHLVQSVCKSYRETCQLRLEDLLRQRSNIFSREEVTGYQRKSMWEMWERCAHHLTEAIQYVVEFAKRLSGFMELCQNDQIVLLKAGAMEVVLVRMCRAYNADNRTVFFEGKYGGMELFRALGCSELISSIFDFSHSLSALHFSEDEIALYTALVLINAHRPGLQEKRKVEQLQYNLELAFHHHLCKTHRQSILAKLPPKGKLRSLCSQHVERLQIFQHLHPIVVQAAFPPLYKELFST
Format: cell-based
Description: The HEK293 cell line is co-transfected transiently with two plasmids, one with the RORγ ligand-binding domain fused to galactose-responsive transcription factor (Gal4), and the other with the luciferase reporter gene and Gal binding sites (UAS). This construction allows to determine the RORγ activity in a cellular system through the measurement of luminescence.
A suspension of RORγ reporter cells was dispensed into plates and cultured 2 h at 37° C. and 5% CO2. Media formulation consisted in DMEM/F-12 medium (Gibco) supplemented with 10% heat inactivated FBS (Sigma-Aldrich), non-essential aminoacids (Sigma-Aldrich), 2 mM Glutamax (Gibco) and 100 U/mL penicillin (Sigma-Aldrich). Dose-response curves with compounds were prepared in 100% DMSO and further diluted 100-fold in culture medium. Compound solutions were added to the plate containing cells (final DMSO concentration of 0.1%) and incubated for 24 h at 37° C. and 5% CO2. Luciferase detection reagent was added to each well, and relative light units (RLUs) were quantified from each assay well using a plate reading luminometer.
Values of average RLU±S.D. were computed for all treatment sets, followed by the calculations of percent-reduction of RORγ activity in response to respective test compound. The following formula was used: activity=100*[1−[x test compound/average vehicle] where the theoretical minimum reduction (0% reduction).

pEC50 | Structure (SMILES)
6.89 | NC(=O)CN1CC[C@H](CNc2ncnc(N(Cc3cnc(C(F)(F)F)nc3)C3CCC3)c2F)[C@@H](O)C1 (racemic) [Example A7-18, rac-2-((3R,4R)-4-(((6-(cyclobutyl((2-(trifluoromethyl)pyrimidin-5-yl)methyl)amino)-5-fluoropyrimidin-4-yl)amino)methyl)-3-hydroxypiperidin-1-yl)acetamide]
7.38 | CC(C)N(Cc1ccc(C(F)(F)F)cc1)c1ncnc(NC[C@H]2CCN(CC(N)=O)C[C@@H]2O)c1F (racemic) [Example A7-19, rac-2-((3R,4R)-4-(((5-fluoro-6-(isopropyl(4-(trifluoromethyl)benzyl)amino)pyrimidin-4-yl)amino)methyl)-3-hydroxypiperidin-1-yl)acetamide]
7.59 | CN(Cc1ccc(C(F)(F)F)cc1)c1ncnc(NC[C@H]2CCN(CC(N)=O)C[C@@H]2O)c1F (racemic) [Example A7-20, rac-2-((3R,4R)-4-(((5-fluoro-6-(methyl(4-(trifluoromethyl)benzyl)amino)pyrimidin-4-yl)amino)methyl)-3-hydroxypiperidin-1-yl)acetamide]
8.40 | NC(=O)CN1CC[C@H](CNc2ncnc(N(Cc3ccc(C(F)(F)F)cc3F)C3CC3)c2F)[C@@H](O)C1 (racemic) [Example A7-22, rac-2-((3R,4R)-4-(((6-(cyclopropyl(2-fluoro-4-(trifluoromethyl)benzyl)amino)-5-fluoropyrimidin-4-yl)amino)methyl)-3-hydroxypiperidin-1-yl)acetamide]
7.09 | NC(=O)CN1CC[C@@H](CNc2ncnc(N(Cc3ccc(C(F)(F)F)nc3)C3CCC3)c2F)[C@H](O)C1 (racemic) [Example A7-23, rac-2-((3R,4R)-4-(((6-(cyclobutyl((6-(trifluoromethyl)pyridin-3-yl)methyl)amino)-5-fluoropyrimidin-4-yl)amino)methyl)-3-hydroxypiperidin-1-yl)acetamide]
6.92 | NC(=O)CN1CC[C@@H](CNc2ncnc(N(Cc3ccc(C(F)(F)F)cn3)C3CCC3)c2F)[C@H](O)C1 (racemic) [Example A7-24, rac-2-((3R,4R)-4-(((6-(cyclobutyl((5-(trifluoromethyl)pyridin-2-yl)methyl)amino)-5-fluoropyrimidin-4-yl)amino)methyl)-3-hydroxypiperidin-1-yl)acetamide]
6.27 | CCN(Cc1ccc(C(F)(F)F)cn1)c1ncnc(NC[C@@H]2CCN(CC(N)=O)C[C@H]2O)c1F (racemic) [Example A7-27, rac-2-((3R,4R)-4-(((6-(ethyl((5-(trifluoromethyl)pyridin-2-yl)methyl)amino)-5-fluoropyrimidin-4-yl)amino)methyl)-3-hydroxypiperidin-1-yl)acetamide]
< 6.00 | NC(=O)CN1CC[C@@H](CNc2ncnc(N(CCF)Cc3ccc(C(F)(F)F)cc3)c2F)[C@H](O)C1 (racemic) [Example A7-30, rac-2-((3R,4R)-4-(((5-fluoro-6-((2-fluoroethyl)(4-(trifluoromethyl)benzyl)amino)pyrimidin-4-yl)amino)methyl)-3-hydroxypiperidin-1-yl)acetamide]
6.77 | NC(=O)CN1CC[C@@H](CNc2ncnc(N(Cc3ccc(C(F)(F)F)cc3)C3CC3)c2F)[C@@H](O)C1 (racemic) [Example A7-49, rac-2-((3R,4S)-4-(((6-(cyclopropyl(4-(trifluoromethyl)benzyl)amino)-5-fluoropyrimidin-4-yl)amino)methyl)-3-hydroxypiperidin-1-yl)acetamide]
8.41 | NC(=O)C(C1CCOCC1)N1CC[C@@H](CNc2ncnc(N(Cc3ccc(C(F)(F)F)cc3)C3CC3)c2F)[C@H](O)C1 (mixture of isomers) [Example A7-71, rac-2-((3R,4R)-4-(((6-(Cyclopropyl(4-(trifluoromethyl)benzyl)amino)-5-fluoropyrimidin-4-yl)amino)methyl)-3-hydroxypiperidin-1-yl)-2-(tetrahydro-2H-pyran-4-yl)acetamide]
7.28 | CCN(Cc1ccc(-c2cnn(C)c2)cc1)c1ncnc(NC[C@@H]2CCN(CC(N)=O)C[C@H]2O)c1F (racemic) [Example A7-72, rac-2-((3R,4R)-4-(((6-(ethyl(4-(1-methyl-1H-pyrazol-4-yl)benzyl)amino)-5-fluoropyrimidin-4-yl)amino)methyl)-3-hydroxypiperidin-1-yl)acetamide]
7.00 | CCN(Cc1ccc(-c2cnn(CCO)c2)cc1)c1ncnc(NC[C@@H]2CCN(CC(N)=O)C[C@H]2O)c1F (racemic) [Example A7-73, rac-2-((3R,4R)-4-(((6-(ethyl(4-(1-(2-hydroxyethyl)-1H-pyrazol-4-yl)benzyl)amino)-5-fluoropyrimidin-4-yl)amino)methyl)-3-hydroxypiperidin-1-yl)acetamide]
6.79 | CCN(Cc1ccc(C(F)(F)CO)cc1)c1ncnc(NC[C@@H]2CCN(CC(N)=O)C[C@H]2O)c1F (racemic) [Example A7-79, rac-2-((3R,4R)-4-(((6-((4-(1,1-difluoro-2-hydroxyethyl)benzyl)(ethyl)amino)-5-fluoropyrimidin-4-yl)amino)methyl)-3-hydroxypiperidin-1-yl)acetamide]
7.05 | NC(=O)CN1CC[C@H](CNc2ncnc(N(Cc3ccc(C(F)(F)F)cn3)C3CC3)c2F)[C@@H](F)C1 (relative stereo) [Example A7-04-2, rel-2-((3R,4R)-4-(((6-(cyclopropyl((5-(trifluoromethyl)pyridin-2-yl)methyl)amino)-5-fluoropyrimidin-4-yl)amino)methyl)-3-fluoropiperidin-1-yl)acetamide]
7.85 | NC(=O)CN1CC[C@H](CNc2ncnc(N(Cc3ccc(C(F)(F)F)cc3)C3CC3)c2F)[C@@H](F)C1 (relative stereo) [Example A7-05-2, rel-2-((3R,4R)-4-(((6-(cyclopropyl(4-(trifluoromethyl)benzyl)amino)-5-fluoropyrimidin-4-yl)amino)methyl)-3-fluoropiperidin-1-yl)acetamide]
7.40 | CC(C)N(Cc1ccc(C(F)(F)F)cc1)c1ncnc(NC[C@H]2CCN(CC(N)=O)C[C@@H]2O)c1F (relative stereo) [Example A7-19-1, rel-2-((3R,4R)-4-(((5-fluoro-6-(isopropyl(4-(trifluoromethyl)benzyl)amino)pyrimidin-4-yl)amino)methyl)-3-hydroxypiperidin-1-yl)acetamide]
7.15 | CC(F)(F)c1ccc(CN(c2ncnc(NC[C@H]3CCN(CC(N)=O)C[C@@H]3O)c2F)C2CC2)cn1 (relative stereo) [Example A7-29-2, rel-2-((3R,4R)-4-(((6-(cyclopropyl((6-(1,1-difluoroethyl)pyridin-3-yl)methyl)amino)-5-fluoropyrimidin-4-yl)amino)methyl)-3-hydroxypiperidin-1-yl)acetamide]
7.37 | CCN(Cc1ccc(C(F)(F)F)cc1)c1ncnc(NC[C@@H]2CCN(C(CCO)C(N)=O)C[C@H]2O)c1F (relative stereo) [Example A7-67, rel-2-((3R,4R)-4-(((6-(ethyl(4-(trifluoromethyl)benzyl)amino)-5-fluoropyrimidin-4-yl)amino)methyl)-3-hydroxypiperidin-1-yl)-4-hydroxybutanamide]
7.80 | NC(=O)CN1CC[C@@](O)(CNc2ncnc(N(Cc3ccc(C(O)(C(F)(F)F)C(F)(F)F)cc3)C3CC3)c2F)[C@H](O)C1 (relative stereo) [Example D5-06, rel-2-((3R,4R)-4-(((6-(cyclopropyl(4-(1,1,1,3,3,3-hexafluoro-2-hydroxypropan-2-yl)benzyl)amino)-5-fluoropyrimidin-4-yl)amino)methyl)-3,4-dihydroxypiperidin-1-yl)acetamide]

Structure (SMILES) | pEC50
NC(=O)CN1CC[C@](O)(CNc2ncnc(N(Cc3ccccc3F)C3CC3)c2F)[C@@H](O)C1 (relative stereo) [Example D5-10, rel-2-((3R,4R)-4-(((6-(cyclopropyl(2-fluorobenzyl)amino)-5-fluoropyrimidin-4-yl)amino)methyl)-3,4-dihydroxypiperidin-1-yl)acetamide] | < 6.00

Same assay, conditions: compounds of the present disclosure; source: Table 2 herein; read-out: Gal4 assay EC50

pEC50 | Structure (SMILES)
> 7.00 | NC(=O)CN1CC[C@H](CNc2ncnc(N(Cc3ccc(C(F)(F)F)cc3)C3CC3)c2F)[C@@H](F)C1 (single isomer, unassigned) [Example A7-05-1]

Same assay, conditions: compounds of the present disclosure; value from Table 2 herein; read-out: Gal4 assay EC50

pEC50 | Structure (SMILES)
> 7.00 | CN(Cc1cccc(OC(F)(F)F)c1)c1ncnc(NC[C@@H]2CCN(CC(N)=O)C[C@H]2O)c1F (racemic) [Example F2-07, rac-2-((3R,4R)-4-(((5-fluoro-6-(methyl(3-(trifluoromethoxy)benzyl)amino)pyrimidin-4-yl)amino)methyl)-3-hydroxypiperidin-1-yl)acetamide]
